Consider 94 compounds from the CATMoS acute toxicity set (Mansouri et al. 2021).

Molecules are shown by their SMILES.

This data set in a line: GHS categories as the set defines them, by LD50: 1 up to 5, 2 up to 50, 3 up to 300, 4 up to 2000, 5 above 2000 mg/kg. The following applies: rat; in vivo; po.

As for `CCCCCCCCCCCCCCCCCCCCCCc1ccccc1`, the GHS category is 5. Under `CCOC(=O)C(=O)Nc1nc(-c2ccc(OC)cc2)cs1` stands 5. Take `C=CCCCCCCCCC(=O)NCC(=O)O`: the GHS category is reported as 5. `CC(=O)c1ccc2c(c1)oc(=O)n2C`: the GHS category is recorded as 5. On to `CCCCCC1COCCC1OC(C)=O` (centres undefined), for which the GHS category is recorded as 5.

In turn, `CCC(=O)O[C@]1(C(C)=O)CC[C@H]2[C@@H]3CCC4=CC(=O)C=C[C@]4(C)[C@H]3[C@@H](O)C[C@@]21C` had a GHS category of 5. For `O=P(Oc1ccccc1)(Oc1ccccc1)Oc1cccc(OP(=O)(Oc2ccccc2)Oc2ccccc2)c1`, the GHS category is given as 5. As for `CCC(=O)OCC(=O)[C@@]1(OC(=O)CC)[C@@H](C)C[C@H]2[C@@H]3CCC4=CC(=O)C=C[C@]4(C)[C@@]3(Cl)[C@@H](O)C[C@@]21C`, the GHS category is 5.

As to `CCOC(=O)[C@H](CCc1ccccc1)N[C@H]1CCc2ccccc2N(CC(=O)O)C1=O`, the GHS category is 5. In turn, `CCn1cc(C(=O)O)c(=O)c2cnc(N3CCNCC3)nc21` displayed a GHS category of 5. Turning to `Cc1ccc(C2=NCOCS2)cc1`, the GHS category is reported as 4. Compound `CC(=O)C=CC=C(C)CCC=C(C)C` had a GHS category of 5.

In the case of `Oc1c(Br)ccc2c(O)c(Br)ccc12`, the GHS category is 5. Compound `CCCCCCCCCCCCCCCC` came in with a GHS category of 5.

In the case of `O=C(NC(=O)c1c(F)cccc1F)Nc1cc(Cl)c(F)c(Cl)c1F`, the GHS category is reported as 5.

Consider `CN(C)C1=NC(=O)C(c2ccccc2)O1` (centres undefined), for which the GHS category is listed as 5.

`CCSC` showed a GHS category of 5. Regarding `CCCS(=O)(=O)Nc1ccc(F)c(C(=O)c2cn(C(=O)c3c(Cl)cccc3Cl)c3ncc(Br)cc23)c1F`, the GHS category turned out to be 5. Take `Nc1nc2cc(Cl)cc(S(=O)(=O)O)c2o1`: the GHS category is 4.

The compound `CNC(=O)Oc1cccc2c1OC(C)O2` (centres undefined) came in with a GHS category of 3. For `CC(C)(C1CCC(O)CC1)C1CCC(O)CC1` (centres undefined), the GHS category is 5. With `CC(=O)Nc1ccc(Cc2ccccn2)c([N+](=O)[O-])c1`, the GHS category amounted to 3.

Take `CC(C)=CCN(CC=C(C)C)CCC(C#N)c1cccc2ccccc12` (centres undefined): the GHS category is recorded as 4. `CC(C)(C)OOC(C)(C)c1cccc(C(C)(C)OOC(C)(C)C)c1` registered a GHS category of 5.

Regarding `CC(C)(C1CCCO1)C1CCCO1` (centres undefined), the GHS category worked out at 4.

As to `CCC1COC(=O)O1` (centres undefined), the GHS category is given as 5. Under `CSc1nc2cc(Cl)ccc2o1` stands 5. `CC(C)OC(=O)CCC(=O)OC(C)C`: the GHS category worked out at 5.

Take `CCCCC(CC)CNc1ccc2ccccc2c1N=Nc1ccc(N=Nc2ccccc2C)cc1C` (centres undefined): the GHS category amounted to 5. Next, `CC(C)C(N)C(=O)OCc1ccccc1` (centres undefined): 5; `CC(=O)N(C)C(=O)Oc1cccc2c1OC(C)(C(C)(C)C)O2` (centres undefined): 4. Compound `O=C1CCCCCCCCCCCCCCCO1` registered a GHS category of 5. Take `CCCCCCC(C)C=O` (centres undefined): the GHS category was determined as 5.

In turn, `CCCCCCCCCCCCCCCCCC#N` had a GHS category of 5. Under `CCOC(/C=C(\C)CCC=C(C)C)OCC` stands 5. As to `COc1ccc2c(c1)CCN(c1ccccc1)C2c1ccc(O)cc1` (centres undefined), the GHS category turned out to be 4. `CCCc1c(Cc2ccc(-c3ccccc3-c3nn[nH]n3)cc2)c(N)nc2ncnn12` yielded a GHS category of 4. For `CCC(C)C(NC(=O)C(Cc1cnc[nH]1)NC(=O)C(CCSC)NC(=O)C(CS)NC(=O)C(NC(=O)CNC(=O)CNC(=O)C(CC(N)=O)NC(=O)C(CC(C)C)NC(=O)C(CS)NC(=O)C(Cc1ccc(O)cc1)NC(=O)CNC(=O)C(CC(=O)O)NC(=O)C(Cc1ccc(O)cc1)NC(=O)C(CO)NC(=O)C(CO)NC(=O)C1CCCN1C(=O)C(CS)NC(=O)CNC(=O)C1CCCN1C(=O)C(Cc1ccc(O)cc1)NC(=O)C(CO)NC(=O)C(N)CC(N)=O)C(C)C)C(=O)NC(CCC(=O)O)C(=O)NC(CO)C(=O)NC(CC(C)C)C(=O)NC(CC(=O)O)C(=O)NC(CO)C(=O)NC(Cc1ccc(O)cc1)C(=O)NC(C(=O)NC(CS)C(=O)NC(CC(N)=O)C(=O)NC(CS)C(=O)NC(C(=O)NC(C(=O)NCC(=O)NC(Cc1ccc(O)cc1)C(=O)NC(CO)C(=O)NCC(=O)NC(CC(=O)O)C(=O)NC(CCCNC(=N)N)C(=O)NC(CS)C(=O)NC(CCC(N)=O)C(=O)NC(C(=O)NC(CCCNC(=N)N)C(=O)NC(CC(=O)O)C(=O)NC(CC(C)C)C(=O)NC(CCCNC(=N)N)C(=O)NC(Cc1c[nH]c2ccccc12)C(=O)NC(Cc1c[nH]c2ccccc12)C(=O)NC(CCC(=O)O)C(=O)NC(CC(C)C)C(=O)NC(CCCNC(=N)N)C(=O)O)C(C)O)C(C)CC)C(C)C)C(C)O` (centres undefined), the GHS category is given as 5. `CCCCCCC(C(C)=O)C(=O)OCC` (centres undefined) displayed a GHS category of 5.

As for `CC(C)CCCCCCOC(=O)C1CCCCC1C(=O)OCCCCCCC(C)C` (centres undefined), the GHS category is given as 5. `CCCCCCCCCCCC(=O)N(C)CC(=O)O` yielded a GHS category of 5. Under `Cc1cc(OP(Oc2cc(C)c(C(C)(C)C)cc2C(C)(C)C)Oc2cc(C)c(C(C)(C)C)cc2C(C)(C)C)c(C(C)(C)C)cc1C(C)(C)C` stands 5; under `C/C=C/C/C=C\CCCCCCCCOC(C)=O`, 4; under `CCOC(=O)C1=C(C)NC(CCl)=C(C(=O)OCC)C1c1cccc([N+](=O)[O-])c1` (centres undefined), 4.

For `Cc1cc(-c2ccc(N=C=O)c(C)c2)ccc1N=C=O`, the GHS category is listed as 5.

Consider `CC=Cc1ccc(OCCCCC)c(OC)c1`, for which the GHS category was determined as 5. Next, `O=C1C=CC=CC1=CNc1ccccc1C(=O)O`: 4; `NCCCCCCCCCCCC(=O)O`: 5. As for `CNc1ccc(C(=O)O)cc1[N+](=O)[O-]`, the GHS category was 5. For the compound `CCC1(CC)COP(=S)(N(SN(C)C(=O)ON=C(C)SC)C2CCCCC2)OC1`, the GHS category is 5. As to `CCC(CO)(CO)C(=O)O`, the GHS category is recorded as 5. Regarding `CC(O)CCCCO` (centres undefined), the GHS category is given as 5. Turning to `COC(=O)[C@H]1[C@H]2C[C@@H]3c4[nH]c5cc(OC)ccc5c4CCN3C[C@H]2C[C@@H](OC(=O)/C=C/c2ccc(O)c(OC)c2)[C@@H]1OC`, the GHS category came to 5. `CNc1ncnc2c1ncn2Cc1ccccc1F` yielded a GHS category of 4. Next, `CN(C)CCOc1nn(-c2cccc(C(F)(F)F)c2)c2ncccc12`: 4; `Clc1ccc(Cn2ccnc2-c2ccccc2)cc1`: 4; `CC(C)=CCCC(C)=C1CC=C(C)CC1`: 5. `CCCCCCCCCCCCCC(=O)Nc1ccc(Cc2ccccn2)c([N+](=O)[O-])c1` had a GHS category of 3. The compound `CCCCCC(=O)OCCC(C)C` registered a GHS category of 5. With `CC(=O)C1(Cl)CC1`, the GHS category stood at 4.

As to `CS(=O)(=O)c1ccc([C@@H](O)[C@@H](CO)NC(=O)C(Cl)Cl)cc1`, the GHS category is recorded as 5. `CC(=O)OCC(=O)C1(O)C(O)CC2C3CCC4=CC(=O)C=CC4(C)C3=CCC21C` (centres undefined) registered a GHS category of 5. `CON=C(C(=O)OC)c1ccccc1CON=C(C)c1cccc(C(F)(F)F)c1`: the GHS category was found to be 5. Consider `O=C1CCc2ccc(OCC(O)CN3CCC(c4ccccc4)CC3)cc2N1` (centres undefined), for which the GHS category worked out at 4.

With `O=CCC(=O)c1ccc(C2CCCCC2)cc1`, the GHS category came to 4. As to `C[C@H]1CO[C@@](Cn2cncn2)(c2cc3ccccc3o2)O1`, the GHS category amounted to 4. Take `CCCNC(=O)c1cnc2c(C)cccn2c1=O`: the GHS category worked out at 3. The compound `CC(=O)OCC(=O)[C@@]1(O)CC[C@H]2[C@@H]3C[C@H](C)C4=CC(=O)C=C[C@]4(C)[C@H]3[C@@H](O)C[C@@]21C` yielded a GHS category of 5. `COC(=O)CC#N` came in with a GHS category of 5. Take `COC(=O)[C@H]1CCCO1`: the GHS category amounted to 5. On to `CN1CN(C)CN(C)C1`, for which the GHS category was 4. `O=C1c2ccccc2OC1c1ccccc1` (centres undefined) returned a GHS category of 5. Next, `CCCCc1c(Cc2ccc(-c3ccccc3-c3nn[nH]n3)cc2)c(=O)nc2nc(C)[nH]n12`: 4; `Cc1ccc(Cl)cc1N=Nc1c(O)c(C(=O)Nc2cc(C)c(NC(=O)c3cc4ccccc4c(N=Nc4cc(Cl)ccc4C)c3O)cc2C)cc2ccccc12`: 5. `Cc1c(C2=C(O)CC(C)(C)CC2=O)c2c(n1-c1ccccc1)CC(C)(C)CC2=O`: the GHS category is 5. On to `NC1CCN(c2nc3c(cc2F)c(=O)c(C(=O)O)cn3-c2ccc(F)cc2F)C1` (centres undefined), for which the GHS category is recorded as 5. Take `CC(C)CCOCCc1ccccc1`: the GHS category is 5. Compound `CCCCCCCCCCCC(=O)OCC(C)O` (centres undefined) had a GHS category of 5. The compound `CC1COc2ccccc2N1C(=O)C(Cl)Cl` (centres undefined) had a GHS category of 5. Next, `Cc1nn(-c2ccc3cc(-c4ccccc4)c(=O)oc3c2)nc1-c1ccccc1`: 5. `CC/C=C\CC(C)OC(=O)c1ccccc1O` (centres undefined) registered a GHS category of 5. Take `CC/C(=C(/c1ccc(OCCN(C)C)cc1)c1cccc(O)c1)c1ccccc1`: the GHS category came to 5. On to `N#CC(CCc1ccc(Cl)cc1)(Cn1cncn1)c1ccccc1` (centres undefined), for which the GHS category came out at 5. `CCCC(=O)c1ccc2c(c1)oc(=O)n2C` registered a GHS category of 5. As for `CC(=O)OCC1=C(C(=O)O)N2C(=O)[C@@H](N)[C@H]2SC1`, the GHS category came to 5. On to `NC(=O)Oc1ccc(Br)cc1C(=O)Oc1ccccc1`, for which the GHS category came out at 5. `C[C@@H]1CCN(C(=O)[C@H](CCCNC(=N)N)NS(=O)(=O)c2cccc3c2NC[C@H](C)C3)[C@@H](C(=O)O)C1`: the GHS category is given as 5.

For `N#CC1CCCC2OCC(c3ccccc3)N12` (centres undefined), the GHS category is recorded as 5.

Regarding `CCO[C@@H]1O[C@H](C(COCc2ccccc2)OCc2ccccc2)[C@H](OCc2ccccc2)[C@H]1O` (some centres undefined), the GHS category is on record as 5.

Regarding `O=C(O)c1nc(C(Cl)(Cl)Cl)n(-c2ccc(Cl)cc2Cl)n1`, the GHS category is 5. `CCCC(=O)c1ccc2[nH]c(=O)oc2c1` returned a GHS category of 5. `Clc1ccc2c(n1)C(c1ccccc1Cl)=NCc1nncn1-2` gave a GHS category of 5. Compound `O=C(O)CCCCCCCCCCCCCCCCC(=O)O` showed a GHS category of 5. Next, `CC1Oc2cc(C(=O)c3ccc(Cl)cc3)ccc2NC1=O` (centres undefined): 5.
